Measurements: patent publication US20110039721A1, “METHOD FOR PREDICTION ABOUT CARCINOGENICITY OF SUBSTANCE IN RODENT” (Chemicals Evaluation and Research Institute, priority 2007, published 2011)
Read-outs that look alike come from different tables or passages of the source.

How the values were obtained:
[1] = system: mRNA expressed from the genes (A) to (D) in rat liver; test: Behavior of genes (mRNA expression level, oligo-DNA microarray) in rat liver after 28-day oral administration; type: in vivo; settings: mRNA vs vehicle control group; for Behavior of gene caused by administration of chemical substance, Gene No. 4846 / Behavior of gene caused by administration of chemical substance, Gene No. 2026 / Behavior of gene caused by administration of chemical substance, Gene No. 4218 / Behavior of gene caused by administration of chemical substance, Gene No. 6182 / Behavior of gene caused by administration of chemical substance, Gene No. 5600: gene group (A); for Behavior of gene caused by administration of chemical substance, Gene No. 4846: Unigene No. Rn.144554; for Behavior of gene caused by administration of chemical substance, Gene No. 2026 / Behavior of gene caused by administration of chemical substance, Gene No. 4218: Unigene No. Rn.167075; for Behavior of gene caused by administration of chemical substance, Gene No. 6182: Unigene No. Rn.5834; for Behavior of gene caused by administration of chemical substance, Gene No. 5600: Unigene No. Rn.9836; for Behavior of gene caused by administration of chemical substance, Gene No. 1494 / Behavior of gene caused by administration of chemical substance, Gene No. 2045 / Behavior of gene caused by administration of chemical substance, Gene No. 2203: gene group (B); for Behavior of gene caused by administration of chemical substance, Gene No. 1494: Unigene No. Rn.1430; for Behavior of gene caused by administration of chemical substance, Gene No. 2045: Unigene No. Rn.19329; for Behavior of gene caused by administration of chemical substance, Gene No. 2203: Unigene No. Rn.21240; for Behavior of gene caused by administration of chemical substance, Gene No. 533 / Behavior of gene caused by administration of chemical substance, Gene No. 725 / Behavior of gene caused by administration of chemical substance, Gene No. 1163 / Behavior of gene caused by administration of chemical substance, Gene No. 4973 / Behavior of gene caused by administration of chemical substance, Gene No. 4095 / Behavior of gene caused by administration of chemical substance, Gene No. 1334 / Behavior of gene caused by administration of chemical substance, Gene No. 6620 / Behavior of gene caused by administration of chemical substance, Gene No. 6303 / Behavior of gene caused by administration of chemical substance, Gene No. 5878 / Behavior of gene caused by administration of chemical substance, Gene No. 1131 / Behavior of gene caused by administration of chemical substance, Gene No. 1562 / Behavior of gene caused by administration of chemical substance, Gene No. 1741 / Behavior of gene caused by administration of chemical substance, Gene No. 893 / Behavior of gene caused by administration of chemical substance, Gene No. 6026 / Behavior of gene caused by administration of chemical substance, Gene No. 154 / Behavior of gene caused by administration of chemical substance, Gene No. 1993 / Behavior of gene caused by administration of chemical substance, Gene No. 813 / Behavior of gene caused by administration of chemical substance, Gene No. 2494 / Behavior of gene caused by administration of chemical substance, Gene No. 2546 / Behavior of gene caused by administration of chemical substance, Gene No. 3776 / Behavior of gene caused by administration of chemical substance, Gene No. 3929 / Behavior of gene caused by administration of chemical substance, Gene No. 1119 / Behavior of gene caused by administration of chemical substance, Gene No. 6742 / Behavior of gene caused by administration of chemical substance, Gene No. 5634: gene group (C); for Behavior of gene caused by administration of chemical substance, Gene No. 533: Unigene No. Rn.106184; for Behavior of gene caused by administration of chemical substance, Gene No. 725: Unigene No. Rn.108075; for Behavior of gene caused by administration of chemical substance, Gene No. 1163: Unigene No. Rn.11766; for Behavior of gene caused by administration of chemical substance, Gene No. 4973: Unigene No. Rn.118529; for Behavior of gene caused by administration of chemical substance, Gene No. 4095: Unigene No. Rn.119024; for Behavior of gene caused by administration of chemical substance, Gene No. 1334 / Behavior of gene caused by administration of chemical substance, Gene No. 6620: Unigene No. Rn.120914; for Behavior of gene caused by administration of chemical substance, Gene No. 6303: Unigene No. Rn.123063; for Behavior of gene caused by administration of chemical substance, Gene No. 5878: Unigene No. Rn.143213; for Behavior of gene caused by administration of chemical substance, Gene No. 1131: Unigene No. Rn.144946; for Behavior of gene caused by administration of chemical substance, Gene No. 1562: Unigene No. Rn.14744; for Behavior of gene caused by administration of chemical substance, Gene No. 1741: Unigene No. Rn.1647; for Behavior of gene caused by administration of chemical substance, Gene No. 893: Unigene No. Rn.164817; for Behavior of gene caused by administration of chemical substance, Gene No. 6026: Unigene No. Rn.167685; for Behavior of gene caused by administration of chemical substance, Gene No. 154: Unigene No. Rn.185941; for Behavior of gene caused by administration of chemical substance, Gene No. 1993: Unigene No. Rn.18728; for Behavior of gene caused by administration of chemical substance, Gene No. 813: Unigene No. Rn.201760; for Behavior of gene caused by administration of chemical substance, Gene No. 2494: Unigene No. Rn.23969; for Behavior of gene caused by administration of chemical substance, Gene No. 2546: Unigene No. Rn.24561; for Behavior of gene caused by administration of chemical substance, Gene No. 3776: Unigene No. Rn.43232; for Behavior of gene caused by administration of chemical substance, Gene No. 3929: Unigene No. Rn.4620; for Behavior of gene caused by administration of chemical substance, Gene No. 1119: Unigene No. Rn.9757; for Behavior of gene caused by administration of chemical substance, Gene No. 6742: Unigene No. Rn.9779; for Behavior of gene caused by administration of chemical substance, Gene No. 5634: Unigene No. Rn.9862; for Behavior of gene caused by administration of chemical substance, Gene No. 5726: gene group (D), Unigene No. Rn.9939
Outline: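 Liver mRNA measured by oligo-DNA microarray after 28 days of once-daily oral gavage in 5-week-old male F344 rats (n=4 per group), with vehicle controls given equal solvent volume. Significance threshold: 1.5-fold up or down versus control, with changes opposite in direction to other carcinogens counted as not significant.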

liver = settings: cited from earlier work
rodent = settings: cited from earlier work
[2] = classification of the substance (M+/M−); cited from earlier work
[3] = classification of the substance (Cr+/Cr−)
[4] = classification of the substance (C+/C−)

Compound	Behavior of gene caused by administration of chemical substance, Gene No. 4846 [1]	Behavior of gene caused by administration of chemical substance, Gene No. 2026 [1]	Behavior of gene caused by administration of chemical substance, Gene No. 4218 [1]	Behavior of gene caused by administration of chemical substance, Gene No. 6182 [1]	Behavior of gene caused by administration of chemical substance, Gene No. 5600 [1]	Behavior of gene caused by administration of chemical substance, Gene No. 1494 [1]	Behavior of gene caused by administration of chemical substance, Gene No. 2045 [1]	Behavior of gene caused by administration of chemical substance, Gene No. 2203 [1]	Behavior of gene caused by administration of chemical substance, Gene No. 533 [1]	Behavior of gene caused by administration of chemical substance, Gene No. 725 [1]	Behavior of gene caused by administration of chemical substance, Gene No. 1163 [1]	Behavior of gene caused by administration of chemical substance, Gene No. 4973 [1]	Behavior of gene caused by administration of chemical substance, Gene No. 4095 [1]	Behavior of gene caused by administration of chemical substance, Gene No. 1334 [1]	Behavior of gene caused by administration of chemical substance, Gene No. 6620 [1]	Behavior of gene caused by administration of chemical substance, Gene No. 6303 [1]	Behavior of gene caused by administration of chemical substance, Gene No. 5878 [1]	Behavior of gene caused by administration of chemical substance, Gene No. 1131 [1]	Behavior of gene caused by administration of chemical substance, Gene No. 1562 [1]	Behavior of gene caused by administration of chemical substance, Gene No. 1741 [1]	further results
Cn1c(N)nc2ncc(-c3ccccc3)cc21 [TS045, 2-amino-1-methyl-6-phenylimidazo[4,5-b]-pyridine]	−	−	−	−	−	−	+	+	−	−	−	−	−	−	−	−	−	−	−	−	Behavior of gene caused by administration of chemical substance, Gene No. 893 [1]: −; Behavior of gene caused by administration of chemical substance, Gene No. 6026 [1]: −; Behavior of gene caused by administration of chemical substance, Gene No. 154 [1]: −; Behavior of gene caused by administration of chemical substance, Gene No. 1993 [1]: −; Behavior of gene caused by administration of chemical substance, Gene No. 813 [1]: −; Behavior of gene caused by administration of chemical substance, Gene No. 2494 [1]: +; Behavior of gene caused by administration of chemical substance, Gene No. 2546 [1]: −; Behavior of gene caused by administration of chemical substance, Gene No. 3776 [1]: −; Behavior of gene caused by administration of chemical substance, Gene No. 3929 [1]: −; Behavior of gene caused by administration of chemical substance, Gene No. 1119 [1]: −; Behavior of gene caused by administration of chemical substance, Gene No. 6742 [1]: −; Behavior of gene caused by administration of chemical substance, Gene No. 5634 [1]: −; Behavior of gene caused by administration of chemical substance, Gene No. 5726 [1]: +; Liver carcinogenicity (liver; [3]): Cr−; Carcinogenicity (rodent; [4]): C+; Mutagenicity by Ames test [2]: M+
Cc1c2ccccc2c(C)c2c1ccc1ccccc12 [TS047, 7,12-Dimethylbenz [a]anthracene]	−	−	−	−	−	−	−	−	−	+	+	−	−	−	−	−	−	−	−	−	Behavior of gene caused by administration of chemical substance, Gene No. 893 [1]: −; Behavior of gene caused by administration of chemical substance, Gene No. 6026 [1]: −; Behavior of gene caused by administration of chemical substance, Gene No. 154 [1]: −; Behavior of gene caused by administration of chemical substance, Gene No. 1993 [1]: −; Behavior of gene caused by administration of chemical substance, Gene No. 813 [1]: −; Behavior of gene caused by administration of chemical substance, Gene No. 2494 [1]: −; Behavior of gene caused by administration of chemical substance, Gene No. 2546 [1]: −; Behavior of gene caused by administration of chemical substance, Gene No. 3776 [1]: −; Behavior of gene caused by administration of chemical substance, Gene No. 3929 [1]: −; Behavior of gene caused by administration of chemical substance, Gene No. 1119 [1]: −; Behavior of gene caused by administration of chemical substance, Gene No. 6742 [1]: −; Behavior of gene caused by administration of chemical substance, Gene No. 5634 [1]: −; Behavior of gene caused by administration of chemical substance, Gene No. 5726 [1]: +; Liver carcinogenicity (liver; in vivo): Cr−; Carcinogenicity (rodent; in vivo): C+; Mutagenicity by Ames test [2]: M+
CC/C(=C(/CC)c1ccc(O)cc1)c1ccc(O)cc1 [TS068, Diethylstilbestrol]	+	−	+	+	+	−	−	−	+	+	+	+	+	+	+	+	+	+	+	+	Behavior of gene caused by administration of chemical substance, Gene No. 893 [1]: +; Behavior of gene caused by administration of chemical substance, Gene No. 6026 [1]: +; Behavior of gene caused by administration of chemical substance, Gene No. 154 [1]: +; Behavior of gene caused by administration of chemical substance, Gene No. 1993 [1]: +; Behavior of gene caused by administration of chemical substance, Gene No. 813 [1]: +; Behavior of gene caused by administration of chemical substance, Gene No. 2494 [1]: +; Behavior of gene caused by administration of chemical substance, Gene No. 2546 [1]: +; Behavior of gene caused by administration of chemical substance, Gene No. 3776 [1]: +; Behavior of gene caused by administration of chemical substance, Gene No. 3929 [1]: +; Behavior of gene caused by administration of chemical substance, Gene No. 1119 [1]: +; Behavior of gene caused by administration of chemical substance, Gene No. 6742 [1]: +; Behavior of gene caused by administration of chemical substance, Gene No. 5634 [1]: +; Behavior of gene caused by administration of chemical substance, Gene No. 5726 [1]: −; Liver carcinogenicity (liver; [3]): Cr−; Carcinogenicity (rodent; [4]): C+; Mutagenicity by Ames test [2]: M−
